SMILES strings stand for the structures. Counter-ions that a name gives are not always drawn.

In the assay the target is T1, cPLA2 crudely purified from the cytoplasm fraction of U937 (Homo sapiens, UniProt P47712).
T1 construct: cPLA2 crudely purified from the cytoplasm fraction of U937; endogenous in cells; host or cells: U937 cells (cytoplasm fraction, crude purification)
T1 sequence (P47712 1-749): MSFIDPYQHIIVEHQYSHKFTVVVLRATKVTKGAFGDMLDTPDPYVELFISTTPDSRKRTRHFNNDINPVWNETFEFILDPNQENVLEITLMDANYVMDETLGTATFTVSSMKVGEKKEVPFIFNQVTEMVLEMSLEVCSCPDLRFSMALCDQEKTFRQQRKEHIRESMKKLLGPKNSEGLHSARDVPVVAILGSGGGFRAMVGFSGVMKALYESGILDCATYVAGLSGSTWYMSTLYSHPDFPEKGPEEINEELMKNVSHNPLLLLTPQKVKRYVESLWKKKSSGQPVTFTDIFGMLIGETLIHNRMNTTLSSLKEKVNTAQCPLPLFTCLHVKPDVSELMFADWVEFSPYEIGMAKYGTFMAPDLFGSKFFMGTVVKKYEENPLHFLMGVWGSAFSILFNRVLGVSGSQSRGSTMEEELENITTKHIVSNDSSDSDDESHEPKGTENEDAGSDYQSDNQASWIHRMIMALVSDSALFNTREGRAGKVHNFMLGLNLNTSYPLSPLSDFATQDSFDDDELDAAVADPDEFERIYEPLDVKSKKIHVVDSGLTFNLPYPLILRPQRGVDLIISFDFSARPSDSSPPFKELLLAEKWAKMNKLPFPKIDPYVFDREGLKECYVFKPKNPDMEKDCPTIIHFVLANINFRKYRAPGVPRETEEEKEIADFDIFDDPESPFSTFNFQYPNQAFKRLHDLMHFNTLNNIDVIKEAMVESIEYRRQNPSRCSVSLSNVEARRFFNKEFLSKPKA
In words: Measurement of cPLA2 inhibitory activity (release of [14C]-arachidonic acid from phosphatidyl choline liposome). Conditions: cPLA2 from U937 cytoplasm fraction, [14C]arachidonyl-phosphatidyl choline liposome, 37° C., 60 minutes; read-out: cPLA2 inhibitory activity, 50% inhibiting concentration IC50. The class given is biochemical. The method, then:
The cPLA2 inhibitory activity was measured based on the method described in the document [See H. Naraba et al., J. Immunol. 160, 2974-2982 (1998)] and modified in the following way.
A DMSO solution of the present invitation compounds was diluted to 2.5 times the final concentration with the assay buffer (4 mM CaCl2, 2 mM dithiothreitol, 150 mM NaCl, 50 mM HEPES buffer solution (pH7.5)) containing 0.55 mg/ml BSA. To 20 μl of this, cPLA2 crudely purified from the cytoplasm fraction of U937 was added in an amount of 10 μl after dilution by an assay buffer solution containing 0.55 mg/ml BSA. A liposome prepared by ultrasonically treating L-α-1-palmitoyl-2-[14C]arachidonyl-phosphatidyl choline (made by PerkinElmer) and adjusted by the assay buffer solution to a concentration of phosphatidyl choline of 10 μM was added and stirred in by an amount of 20 μl and the mixture was reacted at 37° C. for 60 minutes. The [^14C]-arachidonic acid released due to the reaction was extracted based on the method described in the documents [see V. P. Dole et al., J. Biol. Chem. 235, 2595 (1960)], was added to Lumaplate® (made by PerkinElmer), dried, then measured by Topcount® (made by PerkinElmer). Except for not adding the present invention compounds, the same procedure was performed as the above to obtain the enzyme control. Except for not adding the invention compounds and not adding the enzyme, the same procedure was followed as above to obtain a negative control. The inhibiting activity was expressed as a percent (%) of the value minus the negative control with respect to the value of the enzyme control minus the negative control. From this, the 50% inhibiting concentration (IC50, μM) was calculated.
Turning to `COc1ccccc1-n1cc(CCc2ccccc2)c2cc(CCC(=O)O)ccc21` [Example 109, 3-[1-(2-methoxyphenyl)-3-(2-phenylethyl)-1H-indol-5-yl]propanoic acid 2-amino-2-(hydroxymethyl)propane-1,3-diol salt (1:1)], the IC50 was 0.224 µM.
In the case of `CCOc1ccc(-n2cc(CCc3ccccc3)c3cc(CCC(=O)O)ccc32)cc1` [Example 112, 3-[1-(4-ethoxyphenyl)-3-(2-phenylethyl)-1H-indol-5-yl]propanoic acid 2-amino-2-(hydroxymethyl)propane-1,3-diol salt (1:1)], the IC50 turned out to be 0.015 µM.
In the case of `O=C(CCc1ccc2c(c1)c(CCc1ccccc1)cn2-c1ccccc1)C(F)(F)F` [Example 113, 1,1,1-trifluoro-4-[1-phenyl-3-(2-phenylethyl)-1H-indol-5-yl]butan-2-one], the IC50 amounted to 1.15 µM.
The figure for `CCOc1ccc(-n2cc(CCc3ccccc3)c3cc(CCC(=O)N(C)OC)ccc32)cc1` [Example 116, 3-[1-(4-ethoxyphenyl)-3-(2-phenylethyl)-1H-indol-5-yl]-N-methoxy-N-methylpropanamide] is 2.17 µM.
With `CCOc1ccc(-n2cc(CCc3ccccc3)c3cc(CCC=O)ccc32)cc1` [Example 117] the figure was 0.527 µM.
With `CCCOc1ccc(-n2cc(CCc3ccccc3)c3cc(CCC(=O)O)ccc32)cc1` [Example 119, 3-[3-(2-phenylethyl)-1-(4-propoxyphenyl)-1H-indol-5-yl]propanoic acid] the figure was 0.007 µM; with `CC(C)Oc1ccc(-n2cc(CCc3ccccc3)c3cc(CCC(=O)O)ccc32)cc1` [Example 121, 3-[1-(4-isopropoxyphenyl)-3-(2-phenylethyl)-1H-indol-5-yl]propanoic acid], 0.007 µM.
For the molecule `COc1ccc(-n2cc(CCc3ccccc3)c3cc(CCC(=O)O)ccc32)cn1` [Example 130, 3-[1-(6-methoxy-3-pyridinyl)-3-(2-phenylethyl)-1H-indol-5-yl]propanoic acid], the IC50 came out at 0.113 µM.
The figure for `O=C(O)CCc1ccc2c(c1)c(CCc1ccccc1)cn2-c1ccccn1` [Example 132, 3-[3-(2-phenylethyl)-1-(2-pyridinyl)-1H-indol-5-yl]propanoic acid hydrochloride] is 0.225 µM; for `O=C(O)CCc1ccc2c(c1)c(CCc1ccccc1)cn2-c1ccc([N+](=O)[O-])cn1` [Example 134, 3-[1-(5-nitro-2-pyridinyl)-3-(2-phenylethyl)-1H-indol-5-yl]propanoic acid hydrochloride] it is 0.211 µM; for `Nc1ccc(-n2cc(CCc3ccccc3)c3cc(CCC(=O)O)ccc32)nc1` [Example 135, 3-[1-(5-amino-2-pyridinyl)-3-(2-phenylethyl)-1H-indol-5-yl]propanoic acid] it is 0.277 µM.
The figure for `CC(=O)Nc1ccc(-n2cc(CCc3ccccc3)c3cc(CCC(=O)O)ccc32)nc1` [Example 140, 3-{1-[5-(acetylamino)-2-pyridinyl]-3-(2-phenylethyl)-1H-indol-5-yl}propanoic acid] is 0.117 µM; for `O=C(O)/C=C/c1ccc2c(c1)c(CCc1ccccc1)cn2-c1ccc(OCc2ccccc2)cc1` [Example 144, (2E)-3-{1-[4-(benzyloxy)phenyl]-3-(2-phenylethyl)-1H-indol-5-yl}-2-propenoic acid] it is 0.042 µM; for `O=C(O)CCc1ccc2c(c1)c(CCc1ccccc1)cn2-c1ccccc1[N+](=O)[O-]` [Example 149, 3-[1-(2-nitrophenyl)-3-(2-phenylethyl)-1H-indol-5-yl]propanoic acid] it is 0.278 µM.
The figure for `Nc1ccccc1-n1cc(CCc2ccccc2)c2cc(CCC(=O)O)ccc21` [Example 151, 3-[1-(2-aminophen 1)-3-(2-phenylethyl)-1H-indol-5-yl]propanoic acid] is 0.185 µM; for `CC(=O)Nc1ccccc1-n1cc(CCc2ccccc2)c2cc(CCC(=O)O)ccc21` [Example 153, 3-{1-[2-(acetylamino)phenyl]-3-(2-phenylethyl)-1H-indol-5-yl}propanoic acid] it is 7.96 µM; for `O=C(O)CCc1ccc2c(c1)c(CCc1ccccc1)cn2-c1cccc(OCc2ccccc2)c1` [Example 155, 3-{1-[3-(benzyloxy)phenyl]-3-(2-phenylethyl)-1H-indol-5-yl}propanoic acid 2-amino-2-(hydroxymethyl)propane-1,3-diol salt (1:1)] it is 0.208 µM.
Regarding `CCOc1cccc(-n2cc(CCc3ccccc3)c3cc(CCC(=O)O)ccc32)c1` [Example 159, 3-[1-(3-ethoxyphenyl)-3-(2-phenylethyl)-1H-indol-5-yl]propanoic acid], the IC50 was 0.515 µM.
With `CCCOc1cccc(-n2cc(CCc3ccccc3)c3cc(CCC(=O)O)ccc32)c1` [Example 161, 3-[3-(2-phenylethyl)-1-(3-propoxyphenyl)-1H-indol-5-yl]propanoic acid], the IC50 came out at 0.813 µM.
The figure for `CC(C)Oc1cccc(-n2cc(CCc3ccccc3)c3cc(CCC(=O)O)ccc32)c1` [Example 163, 3-[1-(3-isopropoxyphenyl)-3-(2-phenylethyl)-1H-indol-5-yl]propanoic acid] is 1.75 µM.
With `O=C(O)CCc1ccc2c(c1)c(CCc1ccccc1)cn2-c1cccc([N+](=O)[O-])c1` [Example 165, 3-[1-(3-nitrophenyl)-3-(2-phenylethyl)-1H-indol-5-yl]propanoic acid] the figure was 0.154 µM.
With `Nc1cccc(-n2cc(CCc3ccccc3)c3cc(CCC(=O)O)ccc32)c1` [Example 167, 3-[1-(3-aminophenyl)-3-(2-phenylethyl)-1H-indol-5-yl]propanoic acid] the figure was 0.049 µM.
In the case of `CC(=O)Nc1cccc(-n2cc(CCc3ccccc3)c3cc(CCC(=O)O)ccc32)c1` [Example 169, 3-{1-[3-(acetylamino)phenyl]-3-(2-phenylethyl)-1H-indol-5-yl}propanoic acid], the IC50 was determined as 0.205 µM.
The figure for `CC(C)(C)C(=O)Nc1cccc(-n2cc(CCc3ccccc3)c3cc(CCC(=O)O)ccc32)c1` [Example 171, 3-[1-{3-[(2,2-dimethylpropanoyl)amino]phenyl}-3-(2-phenylethyl)-1H-indol-5-yl]propanoic acid] is 0.21 µM; for `N#Cc1cccc(-n2cc(CCc3ccccc3)c3cc(CCC(=O)O)ccc32)c1` [Example 173, 3-[1-(3-cyanophenyl)-3-(2-phenylethyl)-1H-indol-5-yl]propanoic acid] it is 0.259 µM.
For the molecule `O=Cc1cccc(-n2cc(CCc3ccccc3)c3cc(CCC(=O)O)ccc32)c1` [Example 175, 3-[1-(3-formylphenyl)-3-(2-phenylethyl)-1H-indol-5-yl]propanoic acid], the IC50 was determined as 0.143 µM.
With `O=C(O)CCc1ccc2c(c1)c(CCc1ccccc1)cn2-c1cccc(C(=O)O)c1` [Example 177, 3-[5-(2-carboxyethyl)-3-(2-phenylethyl)-1H-indol-1-yl]benzoic acid] the figure was 2.52 µM.
With `CN(C)c1cccc(-n2cc(CCc3ccccc3)c3cc(CCC(=O)O)ccc32)c1` [Example 179, 3-{1-[3-(dimethylamino)phenyl]-3-(2-phenylethyl)-1H-indol-5-yl}propanoic acid] the figure was 0.182 µM; with `O=C(O)CCc1ccc2c(c1)c(CCc1ccccc1)cn2-c1cccc(Cl)c1` [Example 181, 3-[1-(3-chlorophenyl)-3-(2-phenylethyl)-1H-indol-5-yl]propanoic acid], 0.138 µM.

For the origin of these results see patent US8293781B2, “Indole derivatives having cPLA2 inhibiting activity and applications and production methods of the same” (Daiichi Sankyo Company, Limited, priority 2007, dated 2012).
